The values below come from US20220226258A1, “COMPOSITIONS AND METHODS USING THYMOL AND/OR CARVACROL FOR INDUCTION OF AUTOPHAGY” (SOCIETE DES PRODUITS NESTLE S.A., priority 2019, published 2022).

The subject of one experiment is human Jurkat cells. Briefly: Autophagic flux (LC3-II, flow cytometry) in Jurkat cells. The class given is cell-based. As to conditions: thymol 1.95 to 250 μM, LC3-II median fluorescence intensity, FIG. 1. How it is done: The human lymphocytic T cell line Jurkat (clone E6.1, ATCC TIB-152) has been used to measure autophagic flux in vitro. Cells were grown in RPMI medium with standard conditions (5% CO2, 37° C.) in a humidified atmosphere. For the experiment, cells were washed, counted and incubated at 1*105/well in duplicate in a 96-flat bottom well plate. Experimental conditions included negative controls (0.5% DMSO), rapamycin treatment as positive control (1 uM) and Earle's Balanced Salt Solution (EBSS) as a starvation medium. Cells received Thymol (in RPMI) at different concentrations ranging from 1.95 μM to 250 μM. In parallel, the same experimental conditions were prepared for the incubation with solution A, from the Flow Cellect Autophagy Kit from Merck, now Guava Autophagy LC3 antibody-based kit. The treatment with compound A blocks the lysosomal degradation of LC3 vesicles and is used to measure autophagic flux. Cells were incubated with thymol at 37° for 1.30 h. Solution A was added for additional 30 minutes. Cells were then transferred in a 96 V bottom plate for the LC3 antibody detection using the Guava Autophagy LC3 antibody-based kit, according the manufacturer's instructions. […] Offline analysis was performed with FCS Express Software and results were expressed as the median fluorescence intensity in the FITC channel (related to the amount of LC3-II present in the cells.)

For a further experiment, the system named is zebrafish larvae. Briefly: Autophagy reporter zebrafish line (LC3-ZsGreen punctae in skeletal muscle). It is filed as in vivo. As to conditions: 16 hours of treatment, LC3 punctae with and without ammonium chloride, FIG. 2. How it is done: After 16 hours of treatment larvae were anesthetized with 0.016% tricaine and imaged with ImageXpress confocal system at 20× magnification (Molecular Devices). Z stack images were captured for each larva and maximal projection images were produced. Ammonium chloride was added for additional 4 hours to block lysosomal degradation. Images were acquired again as before. In order to quantify autophagic flux, number of LC3 punctae have been calculated in presence and in absence of ammonium chloride with MetaXpress software (Molecular Devices) and normalized by zebrafish area.

Experiment [1] has as its system liver steatosis in obese mice. Kind of experiment: Chronic treatment on a model of obesity (high fat diet), liver Oil Red O staining. The conditions noted are these: thymol 20 mg/kg/day for 8 weeks, FIG. 4. The class given is in vivo. How it is done:
Mice were fed with high fat diet (Research Diets D12492: 60% fat, 20% protein, 20% carbohydrates) for 8 weeks. Mice were sacrificed by isofluorane inhalation followed by exsanguination. Livers were collected, embedded in OCT and frozen in isopentane. In order to visualize lipid droplets, liver sections of 10 μm were cut and stained by Oil Red O. Lipids size was calculated using imageJ software

For `Cc1ccc(C(C)C)c(O)c1` [thymol], the “concentration from which thymol induced autophagy in a dose dependent manner” value was no less than 125 µM in the experiment with human Jurkat cells and no less than 50 µM in the experiment with zebrafish larvae. For the same compound, the liver steatosis entry in experiment [1] was “reduction of liver steatosis”.
